Test results: patent US6696447B2, “Hydroxyphenyl-piperazinyl-methyl-benzamide derivatives for the treatment of pain” (AstraZeneca AB, priority 2000, dated 2004)

What was measured:
Type in all cases: biochemical
[1] = molecular target: T1, delta receptors, mouse brain membranes (Mus musculus, UniProt P32300); assay: GTP[γ]35S binding functional assay, homogenised mouse brain
T1 construct: from tissue; host or cells: mouse brain homogenate
Description: (§1) B. Mouse and rat brains were weighed and rinsed in ice-cold PBS (containing 2.5 mM EDTA, pH 7.4). The brains were homogenized with a polytron for 15 sec (mouse) or 30 sec (rat) in ice-cold lysis buffer (50 mM Tris, pH 7.0, 2.5 mM EDTA, with phenylmethylsulfonyl fluoride added just prior use to […] from a 0.5M stock in DMSO:ethanol).
(§2) The agonist activity of the compounds is measured by determining the degree to which the compounds receptor complex activates the binding of GTP to G-proteins to which the receptors are coupled. In the GTP binding assay, GTP[γ]^35S is combined with test compounds and membranes from HEK-293S cells expressing the cloned human opioid receptors or from homogenised rat and mouse brain. Agonists stimulate GTP[γ]^35 S binding in these membranes. The EC50 and Emax values of compounds are determined from dose-response curves. Right shifts of the dose response curve by the delta antagonist naltrindole are performed to verify that agonist activity is mediated through delta receptors.

[2] = molecular target: T2, human δ receptor (HDELTA) (Homo sapiens, UniProt P41143); assay: GTP[γ]35S binding functional assay, HEK-293S membranes expressing cloned human opioid receptor (HDELTA)
T2 construct: expressed in transfected cells; host or cells: human 293S (HEK-293S) cells, geneticin-selected
Description: A. Human 293S cells expressing cloned human μ, δ, and κ receptors and neomycin resistance were grown in suspension at 37° C. and 5% CO2 in shaker flasks containing calcium-free DMEM10% FBS, 5% BCS, 0.1% Pluronic F-68, and 600 μg/ml geneticin.
Cells were pelleted and resuspended in lysis buffer (50 mM Tris, pH 7.0, 2.5 mM EDTA, with PMSF added just prior to use to 0.1 mM from a 0.1 M stock in ethanol), incubated on ice for 15 min, then homogenized with a polytron for 30 sec. The suspension was spun at 1000 g (max) for 10 min at 4° C. The supernatant was saved on ice and the pellets resuspended and spun as before. The supernatants from both spins were combined and spun at 46,000 g(max) for 30 min. The pellets were resuspended in cold Tris buffer (50 mM Tris/Ci, pH 7.0) and spun again. The final pellets were resuspended in membrane buffer (50 mM Tris, 0.32 M sucrose, pH 7.0). Aliquots (1 ml) in polypropylene tubes were frozen in dry ice/ethanol and stored at −70° C. until use. The protein concentrations were determined by a modified Lowry assay with sodium dodecyl sulfate.
as §2

[3] = molecular target: T3, delta receptors, rat brain membranes (Rattus norvegicus, UniProt P33533); assay: GTP[γ]35S binding functional assay, homogenised rat brain
T3 construct: from tissue; host or cells: rat brain homogenate
Description: as §1, §2

T3 sequence (P33533 whole entry): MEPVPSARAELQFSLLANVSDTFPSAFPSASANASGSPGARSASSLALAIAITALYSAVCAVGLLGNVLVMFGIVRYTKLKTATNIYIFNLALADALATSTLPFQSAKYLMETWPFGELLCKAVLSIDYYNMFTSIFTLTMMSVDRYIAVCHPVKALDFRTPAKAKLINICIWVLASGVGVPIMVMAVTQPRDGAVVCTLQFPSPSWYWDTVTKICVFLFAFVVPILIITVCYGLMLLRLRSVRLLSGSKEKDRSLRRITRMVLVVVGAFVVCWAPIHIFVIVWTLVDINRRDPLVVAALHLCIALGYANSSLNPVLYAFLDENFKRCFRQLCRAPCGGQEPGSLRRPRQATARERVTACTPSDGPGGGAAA
T1 sequence (P32300 whole entry): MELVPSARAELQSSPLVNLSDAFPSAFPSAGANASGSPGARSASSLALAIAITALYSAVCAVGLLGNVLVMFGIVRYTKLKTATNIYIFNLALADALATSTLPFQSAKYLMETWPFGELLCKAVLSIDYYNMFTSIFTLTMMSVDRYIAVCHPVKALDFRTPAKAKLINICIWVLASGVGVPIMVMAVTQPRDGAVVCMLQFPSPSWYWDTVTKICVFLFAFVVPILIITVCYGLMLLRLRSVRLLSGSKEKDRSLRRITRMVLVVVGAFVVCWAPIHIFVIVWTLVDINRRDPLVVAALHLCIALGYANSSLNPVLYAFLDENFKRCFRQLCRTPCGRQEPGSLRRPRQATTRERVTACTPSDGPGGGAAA
T2 sequence (P41143 whole entry): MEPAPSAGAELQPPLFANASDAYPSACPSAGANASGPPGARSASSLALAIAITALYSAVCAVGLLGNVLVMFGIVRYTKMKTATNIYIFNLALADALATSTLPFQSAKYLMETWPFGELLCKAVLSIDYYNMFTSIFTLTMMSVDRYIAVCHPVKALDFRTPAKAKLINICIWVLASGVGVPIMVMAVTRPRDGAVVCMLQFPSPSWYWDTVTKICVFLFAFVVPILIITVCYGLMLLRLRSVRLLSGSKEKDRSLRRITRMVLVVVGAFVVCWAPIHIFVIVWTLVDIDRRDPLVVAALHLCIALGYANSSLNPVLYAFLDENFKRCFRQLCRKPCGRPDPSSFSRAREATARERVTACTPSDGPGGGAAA

SMILES | Emax [1] [%] | Emax [2] [%] | Emax [3] [%]
CCN(CC)C(=O)c1ccc(C(c2cccc(O)c2)N2CCN(Cc3ccco3)CC2)cc1 (stereo not drawn) [Example 1, N,N-diethyl-4-[[4-(2-furylmethyl)-1-piperazinyl](3-hydroxyphenyl)methyl]benzamide] | 113 | 94.8 | 130
CCN(CC)C(=O)c1ccc(C(c2cccc(O)c2)N2CCN(Cc3ccsc3)CC2)cc1 (stereo not drawn) [Example 3, N,N-diethyl-4-{(3-hydroxyphenyl)[4-(3-thienylmethyl)-1-piperazinyl]methyl}benzamide] | 122 | 114 | 128
CCN(CC)C(=O)c1ccc(C(c2cccc(O)c2)N2CCN(Cc3cccs3)CC2)cc1 (stereo not drawn) [Example 2, N,N-diethyl-4-{(3-hydroxyphenyl)[4-(2-thienylmethyl)-1-piperazinyl]methyl}benzamide] | 118 | 105 | 120
